Earlier results, collected in patent US11019825B2, “Product” (priority 2015, dated 2021).

Legend:
canola seedlings = settings: low concentrations

## Harzianic acid
Pythium irregulare
  antibiotic activity in vitro: antibiotic activity
Sclerotinia sclerotiorum
  antibiotic activity in vitro: antibiotic activity
Rhizoctonia solani
  antibiotic activity in vitro: antibiotic activity
Canola seedlings
  plant growth promotion effect: plant growth promotion effect
